Results on two molecules are retold here after patent publication US20040055092A1, “Use of percarbamic acids and diacyl percarbamates and precursors therefor” (priority 2000, published 2004).

Assay [1] can be described thus: Bleaching of dye solutions (degree of dye removal). Conditions: activator 2 g/l. The method, then:
The bleaching solution was prepared as follows: […] Bleach activator 2 g/l […] Total volume 25 ml pH 3 was obtained with acetic acid; pH 7 was obtained with sodium dihydrogen phosphate (0.1M) and sodium hydroxide (0.1M); pH 10 was obtained using sodium carbonate. […] The degree of dye removal or bleaching (R %) was calculated using the following equation: % R=1-(A2/A1)×100 […]

Assay [2] concerns E. Coli. Nature of the assay: E. Coli cultures exposed 45 minutes at 37° C., plate counts. The conditions noted are these: peroxide 5 g/l and/or ASP 1 3 g/l; for Counts recorded: 45 minutes at 37° C., controls 40×10^8 (time zero), 37×10^8 (45 minutes), average of three; for reduction in bacteria count / kill: 45 minutes treatment at 37° C. It counts as cell-based. As for the experimental part: Cultures of E. Coli in Ringer's saline were exposed to various conditions for 45 minutes at 37° C. These were then serially diluted (eight 10-fold dilutions) and plated onto nutrient agar (treatments were done in triplicate to ensure reproducibility), and five tests were done overall as shown below. Initial E. Coli concentration was approximately 5×10^9/ml and cultures were grown in nutrient broth overnight before being centrifuged and then re-suspended in saline. A E. Coli control-time zero. B E. Coli control-time 45 minutes C E. Coli plus peroxide at 5 g/l for 45 minutes D E. Coli plus […] at 3 g/l for 45 minutes E E. Coli plus peroxide of 5 g/l plus […] (3 g/l) for 45 minutes Plates were observed and counted after 2 days incubation at 37° C.

For the molecule `OO` [H2O2, Hydrogen peroxide], the “degree of dye removal % R” value in assay [1] (pH 3, 20° C., 3 hours) worked out at 3.3%; in assay [1] (pH 3, 20° C., 24 hours), 85%; in assay [1] (pH 7, 20 C., 3 hours), 2.7%; in assay [1] (pH 7, 20 C., 24 hours), 7.1%; in assay [1] (pH 10, 20°C., 3 hours) it was 11.3%; in assay [1] (pH 10, 20°C., 24 hours) it was 24.8%. For the same molecule, the Counts recorded in assay [2] was 12.9×10^8 colony forming units ml^−1. In assay [2], the “reduction in bacteria count / kill” value was ~66%.
Consider `NC(=O)S(=O)(=O)O` [ASP 1], for which, in assay [2], the Counts recorded was 7.9×10^8 colony forming units ml^−1 and the “reduction in bacteria count / kill” value is on record as “about 80%”.
